Test results reported in paper PMC6680770, “Effect of Ticagrelor, a Cytochrome P450 3A4 Inhibitor, on the Pharmacokinetics of Tadalafil in Rats” (Pharmaceutics, 2019).
Several values for one entry are separate records, joined by “and”; a condition that tells them apart may be missing. Equal entries are not always repeated. Where two headings read alike, the source gives them in different places. One block for each compound: values may come before it.

Columns and labels:
[1] = Pharmacokinetic study of tadalafil after oral administration to non-pretreated and ticagrelor-pretreated rats, non-compartment analysis; type: in vivo, Sprague-Dawley rats; conditions: tadalafil 2 mg/kg oral; for Cmax / AUC(0-inf) / CL/F / Tmax / half-life / AUC(0-t): Sprague-Dawley, rat, plasma, po, 2 mg/kg, mean ± SD, n = 10; for AUC(0-t): read-out: AUC0–24
Experimental: The concentrations of tadalafil were analyzed by a liquid chromatography tandem-mass spectrometry (LC-MS/MS) system equipped with Agilent 1290 series and Agilent 6495 Triple Quad LC/MS (Agilent Technologies, Santa Clara, CA, USA). A YMC-Triart C18 column (50 × 2.0 mm, 1.9 µm; YMC Inc., Wilmington, NC, USA) was used. The mobile phase was a mixture of 0.2% formic acid in acetonitrile and 0.2% formic acid in distilled water (50:50, v/v), and the flow rate was 0.4 mL/min. The temperature of the column and autosampler were set as 30 °C and 4 °C, respectively. The positive ion mode using Agilent jet stream electrospray ionization (AJS-ESI) was applied to record the scan mass spectra. The ion transitions of tadalafil and IS were set as 390.4→268.1 m/z and 876.4→308.1 m/z, respectively, and detected with a multiple reaction monitoring (MRM) mode. The collision energies for tadalafil and IS were 10 V and 30 V, respectively. The cell accelerator voltage was 5 V and the dwell time was set as 200 ms. The source parameters were set as follows: Gas temperature 200 °C, gas flow 14 L/min, nebulizer 20 psi, sheath gas heater 250 °C, sheath gas flow 11 L/min, capillary 3000 V, and nozzle voltage 1500 V.
(§1) The experiment was performed in a parallel design. A total of 20 rats were randomly divided into two groups. The control group, Group N (n = 10, non-pretreated rats), was orally administered for 7 days only with the vehicle (normal saline/polyethylene glycol 400/dimethyl sulfoxide = 40:20:20). Group T (n = 10, ticagrelor-pretreated rats), an experimental group, received 10 mg/kg of ticagrelor in the vehicle once a day for 7 days orally. Thereafter, on the seventh day, tadalafil (2 mg/kg) was orally administered 30 min after the final administration of the vehicle or ticagrelor. Doses of all samples were calculated according to the weight of the rats and administered using gavage. The dose of ticagrelor and tadalafil given to rats were determined by converting the human doses (90 mg for ticagrelor and 20 mg for tadalafil) to animal doses with body surface area, according to the United States Food and Drug Administration guidelines. Blood (0.3 mL) was collected from the retro-orbital plexus or the jugular vein at predetermined time-points (0, 0.33, 0.67, 1, 1.5, 2, 4, 6, 8, 12, and 24 h) after the oral administration. Samples were centrifuged at 15,000× g for 5 min at 4 °C. The plasma was collected and stored at −20 °C until the concentration of tadalafil was analyzed by LC-MS/MS.
Protein precipitation was applied to extract tadalafil from plasma. Briefly, 200 µL of acetonitrile (0.2 v/v% formic acid) containing 500 ng/mL of IS was added to 20 µL of the plasma sample. After shaking for 5 min, the mixture was centrifuged at 15,000× g for 5 min. The supernatant (150 µL) was transferred and 5 µL of the sample was injected into the LC-MS/MS.
Pharmacokinetic data were analyzed based on the non-compartment analysis of WinNonlin software 8.1 (Pharsight Corp., Sunnyvale, CA, USA). The maximum plasma concentration of tadalafil (maximum concentration (Cmax)) and the time to reach the maximal plasma concentration (Tmax) of tadalafil were determined from the plasma concentration-time profiles. The area under the plasma concentration vs time curve from 0 to 24 h (AUC0–24) was calculated by the linear trapezoidal rule and the area under the plasma concentration vs time curve from 0 h to infinite time (AUC0–∞) was estimated by extrapolating time to infinity. The elimination half-life (T1/2) and apparent total clearance (CL/F) were determined from the ln 2/elimination rate constant and dose/AUC0–∞, respectively.

[2] = One-compartment pharmacokinetic modeling of the plasma concentration-time profile of tadalafil; type: in vivo, Sprague-Dawley rats; conditions: one-compartment model; for k el: Sprague-Dawley, rat, plasma, read-out: Ke (converted); for k el / Ka / V/F: tadalafil 2 mg/kg oral, mean ± SD, n = 10
Experimental: as §1
Pharmacokinetic modeling of the plasma concentration-time profile of tadalafil was performed using a one-compartment model to investigate the absorption and elimination rates. The parameters of the one-compartment model of tadalafil were estimated based on data from Group N and Group T.
In this model, the shift of the tadalafil amount in the gut compartment and the central compartment is described by the following equations [33]: dG/dt= −Ka·G dC/dt=Ka·G−Ke·C where G and C represent the amount of tadalafil in the gut compartment and the central compartment, respectively. Ka indicates the absorption rate constant from the gut compartment to the central compartment. Ke indicates the elimination rate constant from the central compartment […]. Each equation was applied to both Group N and Group T data through the classic model of WinNolin software 8.1 (Pharsight Corp., Sunnyvale, CA, USA).
Predicted plasma concentrations of tadalafil (Conpred) using the one-compartment model were estimated by the following equation [34]: Conpred= C/(V/F) where V/F indicates the central volume of distribution of tadalafil.

[3] = parameters: method as in PMID 14622499; conditions: cited from earlier work
[4] = longer than sildenafil or vardenafil; cited from earlier work
[5] = system: CYP3A; experiment: Classification of ticagrelor as CYP3A inhibitor from changes in tadalafil AUC and clearance; type: in vivo; conditions: weak inhibitor = increases AUC of CYP substrate 1.25-fold to 2-fold or reduces clearance by 20–50%; inferred from tadalafil AUC (1.61-fold) and clearance (37%) in rats
Experimental: as §1, with “Blood (0.3 mL) was collected from the retro-orbital plexus or the jugular vein at predetermined time-points (0, 0.33, 0.67, 1, 1.5, 2, 4, 6, 8, 12, and 24 h) after the oral administration. Samples were centrifuged at 15,000× g for 5 min at 4 °C.” left out
Pharmacokinetic data were analyzed based on the non-compartment analysis of WinNonlin software 8.1 (Pharsight Corp., Sunnyvale, CA, USA). The maximum plasma concentration of tadalafil (maximum concentration (Cmax)) and the time to reach the maximal plasma concentration (Tmax) of tadalafil were determined from the plasma concentration-time profiles. […]

[6] = Group T, ticagrelor-pretreated rats (10 mg/kg, 7 days)
[7] = rats, ticagrelor pretreatment, p < 0.05
[8] = rats, ticagrelor-pretreated vs non-pretreated
[9] = Group T, ticagrelor-pretreated rats
[10] = ticagrelor-pretreated vs non-pretreated rats

Compound: CN1CC(=O)N2[C@H](c3ccc4c(c3)OCO4)c3[nH]c4ccccc4c3C[C@@H]2C1=O [tadalafil, Tadalafil]
Cmax ([1]; Group N, non-pretreated rats (vehicle 7 days)): 376 ± 72.8 ng/mL | AUC(0-inf) ([1]; Group N, non-pretreated rats): 3070 ± 743 ng·h/mL | CL/F ([1]; Group N, non-pretreated rats): 11.3 mL/min/kg | Tmax ([1]; Group N, non-pretreated rats): 1.45 ± 0.5 h | half-life ([1]; Group N, non-pretreated rats): 3.15 ± 0.23 h | AUC(0-t) ([1]; Group N, non-pretreated rats): 3050 ± 732 ng·h/mL | Cmax ([1]; Group T, ticagrelor-pretreated rats (10 mg/kg oral once a day, 7 days)): 433 ± 120 ng/mL | AUC(0-inf) [1, 6]: 5100 ± 1800 ng·h/mL | CL/F [1, 6]: 7.17 mL/min/kg | Tmax [1, 6]: 3.22 ± 1.3 h | half-life [1, 6]: 4.47 ± 0.89 h | AUC(0-t) [1, 6]: 4900 ± 1590 ng·h/mL | increase of AUC of tadalafil by co-administration with ticagrelor ([1]; rats, ticagrelor pretreatment): approximately 61% | increase of Tmax, Group T compared to Group N ([1]; rats, ticagrelor pretreatment): 2.22 fold | reduction of tadalafil clearance, Group T compared with Group N ([1]; rats, ticagrelor pretreatment): 37% | increase of Cmax, Group T compared to Group N ([1]; rats, ticagrelor pretreatment, no significant difference (p = 0.3332)): 1.15 fold | increase of AUC0–24 (systemic exposure), Group T compared to Group N [1, 7]: 1.61 fold | increase of AUC0–∞, Group T compared to Group N [1, 7]: 1.66 fold | AUC0–24 Ratio (Group T/Group N) [1, 8]: 1.61 | AUC0–∞ Ratio (Group T/Group N) [1, 8]: 1.66 | CL/F Ratio (Group T/Group N) [1, 8]: 0.63 | Cmax Ratio (Group T/Group N) [1, 8]: 1.15 | T1/2 Ratio (Group T/Group N) [1, 8]: 1.42 | Tmax Ratio (Group T/Group N) [1, 8]: 2.22 | k el ([2]; Group N, non-pretreated rats): 4.72e-05 s⁻¹ | k el [2, 9]: 3.61e-05 s⁻¹ | Ka ([2]; Group N, non-pretreated rats): 1.71 ± 0.91 h⁻¹ | V/F ([2]; Group N, non-pretreated rats): 4.39 ± 0.78 L/kg and 4.39 ± 0.76 L/kg | Ka [2, 9]: 1.14 ± 0.73 h⁻¹ | V/F [2, 9]: 3.36 ± 0.95 L/kg | Ka Ratio (Group T/Group N) [2, 10]: 0.67 | Ke Ratio (Group T/Group N) [2, 10]: 0.77 | V/F Ratio (Group T/Group N) [2, 10]: 0.77 | half-life ([3]; elderly men): about 21.6 h | half-life ([3]; normal healthy men, after administration): approximately 17.5 h | clinical efficacy (duration) [4]: up to 36 h

CYP3A inhibitor classification [5]: weak CYP3A inhibitor
Compound: CCCSc1nc(N[C@@H]2C[C@H]2c2ccc(F)c(F)c2)c2nnn([C@@H]3C[C@H](OCCO)[C@@H](O)[C@H]3O)c2n1 [ticagrelor, Ticagrelor]
